For experiment [1], the target named is T1, GST-PPARG-LBD (Homo sapiens, UniProt P37231).
T1 construct: A mixture of 5 nM GST-PPARG-LBD; purchased Invitrogen
T1 sequence (P37231 238-503 limits assumed): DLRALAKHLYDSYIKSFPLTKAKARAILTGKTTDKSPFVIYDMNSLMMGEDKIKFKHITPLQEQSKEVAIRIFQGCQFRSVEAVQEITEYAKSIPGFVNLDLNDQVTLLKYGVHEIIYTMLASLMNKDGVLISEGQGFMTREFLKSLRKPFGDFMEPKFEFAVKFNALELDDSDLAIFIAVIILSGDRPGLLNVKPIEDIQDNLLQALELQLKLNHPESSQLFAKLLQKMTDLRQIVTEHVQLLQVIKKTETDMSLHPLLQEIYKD
As to the kind of experiment: Lanthascreen PPARG competitive binding assay (Invitrogen). The note with it: Table 3; for IC50: read-out: IC50 (nM) Lantha. As for the experimental part:
Lanthascreen PPARG Competitive Binding Assay (Invitrogen)
The assay was performed according to manufacturer protocol. A mixture of 5 nM GST-PPARG-LBD, 5 nM Tb-GST-antibody, 5 nM Fluormone Pan-PPAR Green, and serial dilutions of the experimental compound, beginning at 10 μM downwards, was added to wells of black 384-well low-volume plates (Greiner) to a total volume of 18 μL. All dilutions were made in TR-FRET assay buffer C. DMSO at 2% final concentration was used as a no-ligand control. Experiment was performed in triplicate, and incubated for 2 hours in the dark prior to assay read in Perkin Elmer ViewLux ultra HTS microplate reader. FRET signal was measured by excitation at 340 nm and emission at 520 nm for fluorescein and 490 nm for terbium. Fold change over DMSO was calculated using GraphPad Prism Software (La Jolla, Calif.) by calculating 520 nm/490 nm ratio. Graphs were plotted as fold change of FRET signal for compound treatment over DMSO-only control.
(In TR-FRET formats the signal depends on donor and acceptor labels being close together.)

The target in experiment [2] is T2, PPARG (Homo sapiens, UniProt P37231).
T2 construct: own inference from the column head
T2 sequence (P37231 1-505): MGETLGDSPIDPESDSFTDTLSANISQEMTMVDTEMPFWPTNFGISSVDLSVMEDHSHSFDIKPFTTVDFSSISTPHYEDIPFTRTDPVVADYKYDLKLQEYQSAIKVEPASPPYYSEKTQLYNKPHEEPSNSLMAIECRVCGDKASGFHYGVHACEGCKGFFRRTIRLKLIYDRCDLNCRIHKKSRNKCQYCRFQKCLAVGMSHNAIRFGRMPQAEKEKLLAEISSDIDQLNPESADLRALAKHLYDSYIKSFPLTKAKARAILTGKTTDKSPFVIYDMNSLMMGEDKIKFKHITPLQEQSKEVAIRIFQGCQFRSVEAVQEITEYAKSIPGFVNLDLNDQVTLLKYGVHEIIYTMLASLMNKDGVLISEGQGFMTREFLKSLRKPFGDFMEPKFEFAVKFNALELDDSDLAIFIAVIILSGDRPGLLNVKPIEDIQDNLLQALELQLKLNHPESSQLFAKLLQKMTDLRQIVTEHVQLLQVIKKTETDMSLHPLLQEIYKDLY
Description: Gal4 transactivation assay. Type of experiment: cell-based. The note with it: Table 3.

Experiment [3] has as its system PPARG. As to the kind of experiment: Cell-based transactivation assay (3xPPRE-luciferase reporter, COS-1 cells co-transfected with PPARG). Details: species or system murine or human (not said which for the values). As for the experimental part:
Cell-Based Transactivation Assay: PPRE is a DNA that contains a binding site for PPARG; thus PPRE is a PPAR response element, used herein as a promoter reporter. The binding site is a DR1 response element with the sequence [NT] repeated 3 times in tandem and then fused to a construct for luciferase. Thus, PPRE is the basis of the cell based transactivation assay described below. The plasmid DNA is co-transfected along with a plasmid for PPARG into COS-1 cells. After an overnight incubation, cells are treated with DMSO or compounds. […] Transfected cells were plated in white Perkin Elmer 384-well plates and incubated 4 hours. […] After 18 hour incubation, treated cells were developed with Brite Lite Plus (Perkin Elmer) and read in 384-well Luminescence Perkin Elmer EnVision Multilabel plate reader. Graphs were plotted in triplicate in GraphPad Prism Software as fold change of treated cells over DMSO control cells.
(A reporter such as luciferase makes a cellular process visible.)

With `CCOCCNC(=O)c1ccc2c(c1)ncn2Cc1ccc(Cl)cc1` [Cpd 23], the IC50 in experiment [1] turned out to be 3710 nM.

Regarding `Cc1nc2cc(C(=O)N[C@@H](C)c3cccc(Br)c3)ccc2n1Cc1cccc(O[C@H](C)C(=O)O)c1` [Cpd 21], the “IC50 (nM) Lantha” value in experiment [1] came out at 1e+08 nM.

Turning to `COC[C@@H](NC(=O)c1ccc2c(c1)ncn2Cc1ccc(Cl)cc1)C(C)C` [Cpd 39], the IC50 in experiment [1] worked out at 612 nM. Besides, in experiment [2], a half-maximal response (EC50) required 442 nM and the “GL4 % act 1 μM” value turned out to be 62.18%.

Regarding `CC(C)CC(C)NC(=O)c1ccc2c(c1)ncn2Cc1ccc(Cl)cc1` (stereo not drawn) [Cpd 31], the IC50 in experiment [1] was found to be 31.8 nM. Further, in experiment [2], the EC50 is 12200 nM, the “GL4 % act 1 μM” value is recorded as 34.29% and the “GL4 % act 10 μM” value is 68.66%.

For the compound `COC[C@H](C)NC(=O)c1ccc2c(c1)ncn2Cc1ccc(Cl)cc1` [Cpd 25], the IC50 in experiment [1] was 5220 nM.

`CC(C)CCC(C)NC(=O)c1ccc2c(c1)ncn2[C@H](C)c1ccc(Cl)cc1` (stereo partly drawn) [Cpd 48]: the IC50 in experiment [1] came out at 1260 nM.

In the case of `CC(C)c1cccc([C@@H](C)NC(=O)c2ccc3c(c2)ncn3Cc2ccc(Cl)cc2)c1` [Cpd 50], the IC50 in experiment [1] stood at 162 nM. In addition, in experiment [2], a half-maximal effect (EC50) was put at 44.1 nM and the “GL4 % act 1 μM” value came out at 54.52%.

Regarding `CC[C@H](NC(=O)c1ccc2c(c1)ncn2Cc1ccc(Cl)cc1)c1ccccc1` [Cpd 52], the IC50 in experiment [1] came to 403 nM. Besides, in experiment [2], the EC50 is 99.3 nM and the “GL4 % act 1 μM” value was determined as 30.41%.

As for `COCCOCc1ccc2c(c1)ncn2Cc1ccc(Cl)cc1` [Cpd 36], the IC50 in experiment [1] amounted to 13700 nM.

With `CC(C)CCNC(=O)c1ccc2c(c1)ncn2Cc1ccc(Cl)cc1` [Cpd 34], in experiment [1], the IC50 came out at 1090 nM.

In the case of `O=C(N[C@H](CO)c1ccccc1)c1ccc2c(c1)ncn2Cc1ccc(Cl)cc1` [Cpd 42], the IC50 in experiment [1] stood at 921 nM.

For the compound `C[C@@H](CC1CCOCC1)NC(=O)c1ccc2c(c1)ncn2Cc1ccc(Cl)cc1` [Cpd 19], the IC50 in experiment [1] amounted to 2100 nM.

Take `CN(CCOc1ccc(CC2SC(=O)NC2=O)cc1)c1ccccn1` (stereo not drawn) [rosiglitazone]: the “activation of the PPRE reporter” value in experiment [3] (over DMSO) was “about 5 fold”.

`CC(C)CC(C)NC(=O)c1ccc2c(c1)ncn2[C@H](C)c1ccc(Cl)cc1` (stereo partly drawn) [Cpd 47]: the IC50 in experiment [1] was 8400 nM.

Take `CC[C@@H](NC(=O)c1ccc2c(c1)ncn2Cc1ccc(Cl)cc1)c1ccccc1` [Cpd 51]: in experiment [1], the IC50 was found to be 1050 nM. For the same compound, in experiment [2], the EC50 is 3910 nM and the “GL4 % act 1 μM” value came to 76.12%.

With `COCCNC(=O)c1ccc2c(c1)ncn2Cc1ccc(Cl)cc1` [Cpd 24], the IC50 in experiment [1] worked out at 6360 nM.

On to `O=C(NCC1CCC1)c1ccc2c(c1)ncn2Cc1ccc(Cl)cc1` [Cpd 29], for which, in experiment [1], the IC50 was determined as 7950 nM.

For the compound `COCCCNC(=O)c1ccc2c(c1)ncn2Cc1ccc(Cl)cc1` [Cpd 22], the IC50 in experiment [1] came to 7330 nM.

For `CCCCNC(=O)c1ccc2c(c1)ncn2Cc1ccc(Cl)cc1` [Cpd 28], in experiment [1], the IC50 was 1420 nM.

For the compound `C[C@@H](CO)NC(=O)c1ccc2c(c1)ncn2Cc1ccc(Cl)cc1` [Cpd 46], the IC50 in experiment [1] stood at 24400 nM.

As for `CCCc1nc2cc(C(=O)N[C@@H](C)c3cccc(C(C)C)c3)ccc2n1Cc1cccc(O[C@@H](C)C(=O)O)c1` [Cpd 35], the IC50 in experiment [1] was 2410 nM.

For the compound `CC(C)c1cccc([C@H](C)NC(=O)c2ccc3c(c2)ncn3Cc2ccc(Cl)nc2)c1` [Cpd 49], the IC50 in experiment [1] was found to be 2050 nM.

In the case of `COc1ccc(C(=O)n2c(C)c(Cc3cccc(O[C@@H](C)C(=O)O)c3)c3cc(OC(F)(F)F)ccc32)cc1` [MRL24], in experiment [3] (relative to rosiglitazone), the “transactivation of the reporter, % of rosiglitazone response” value is “about 25%”.

As to `CC(C)c1cccc([C@H](C)NC(=O)c2ccc3c(c2)ncn3[C@H](C)c2ccc(Cl)cc2)c1` [Cpd 41], the IC50 in experiment [1] stood at 11000 nM.

As for `CC(C)c1cccc([C@H](C)NC(=O)c2ccc3c(c2)ncn3[C@@H](C)c2ccc(Cl)cc2)c1` [Cpd 15], in experiment [1], the IC50 was 2520 nM.

Consider `COC(=O)[C@@H](NC(=O)c1ccc2c(c1)ncn2Cc1ccc(Cl)cc1)c1ccccc1` [Cpd 43], for which the IC50 in experiment [1] was 237 nM. For the same compound, in experiment [2], the midpoint of the response, the EC50, lay at 752 nM and the “GL4 % act 1 μM” value stood at 51.21%.

As for `O=C(NCC1CC1)c1ccc2c(c1)ncn2Cc1ccc(Cl)cc1` [Cpd 20], the IC50 in experiment [1] came to 18300 nM.

As for `CC(C)CCC(C)NC(=O)c1ccc2c(c1)ncn2Cc1ccc(Cl)cc1` (stereo not drawn) [Cpd 30], the IC50 in experiment [1] worked out at 42.3 nM. Moreover, in experiment [2], the EC50 came to 636 nM, the “GL4 % act 1 μM” value was found to be 96.37% and the “GL4 % act 10 μM” value was 109.37%.

`C[C@H](NC(=O)c1ccc2c(c1)ncn2Cc1ccc(Cl)cc1)c1ccc(Br)cc1` [Cpd 16]: the IC50 in experiment [1] turned out to be 2380 nM.

Take `CC(C)c1cccc([C@H](C)NC(=O)c2ccc3c(c2)ncn3Cc2ccc(Cl)cc2)c1` [Cpd 17]: the IC50 in experiment [1] came to 4400 nM.

As to `CC(C)[C@@H](CO)NC(=O)c1ccc2c(c1)ncn2Cc1ccc(Cl)cc1` [Cpd 40], the IC50 in experiment [1] was 3250 nM.

In the case of `Cc1nc2cc(C(=O)N[C@@H](C)c3cccc(C(C)C)c3)ccc2n1Cc1cccc(O[C@@H](C)C(=O)O)c1` [Cpd 33], in experiment [1], the IC50 was 2420 nM.

In the case of `COC(=O)[C@H](C)NC(=O)c1ccc2c(c1)ncn2Cc1ccc(Cl)cc1` [Cpd 38], in experiment [1], the IC50 was 2160 nM.

Turning to `CCc1nc2cc(C(=O)N[C@@H](C)c3cccc(C(C)C)c3)ccc2n1Cc1cccc(O[C@@H](C)C(=O)O)c1` [Cpd 32], the IC50 in experiment [1] worked out at 2030 nM.

For `O=C(NCC[C@H]1CCO1)c1ccc2c(c1)ncn2Cc1ccc(Cl)cc1` [Cpd 26], the IC50 in experiment [1] turned out to be 6770 nM.

A word on the IC50: it is the midpoint of a concentration-inhibition curve. As usually defined, the EC50 is the concentration at which the effect is half-maximal. High values mean a less potent agent, low ones a more potent agent.

The values above are taken from patent US20140249196A1, “N-BENZYLBENZIMIDAZOLE MODULATORS OF PPARG” (priority 2011, published 2014).
